The source made the active and inactive calls.
What was measured:
cells = format: functional
[1] = THP-1 cell cytotoxicity, dose response, cytotoxicity control for non-replicating M. tuberculosis project (AID 489025); format: functional
[2] = Vero E6 cell cytotoxicity, dose response, cytotoxicity control for non-replicating M. tuberculosis project, secondary assay (AID 492998); format: functional, VeroE6; conditions: Vero C1008
H9c2 = experiment: cells; format: functional, cell-based; conditions: Rattus norvegicus, H9c2, Myocardium;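 also: confirmatory concentration-response retest of ultra-high-throughput screening hits for modulation of myocardial damage; cell death induced by hydrogen peroxide oxidative stress; compound pretreatment for 60 min then peroxide exposure for 2 h; potency is for protecting the cells against peroxide damage rather than for killing them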
[3] = HepG2 cell cytotoxicity, dose response, cytotoxicity control for non-replicating M. tuberculosis project (AID 489018); format: functional; conditions: Mycobacterium tuberculosis
[4] = Concentration-dependent survival of SW480 colon cancer line, luminescence detection with CellTiter-Glo, half-maximal inhibitory concentration (AID 1117338); format: functional
[5] = cytotoxicity toward HT-29 cells – cell-based, CellTiter-Glo luminescence, IC50, dose response (AID 1117330); format: functional
[6] = SNU-C1 cell viability reduction, dose response, CellTiter-Glo luminescence (AID 1117323); format: functional, cell-based
[7] = RKO cell viability reduction, dose response, CellTiter-Glo luminescence (AID 1117322); format: functional
[8] = cytotoxicity toward HCT116 cells – cell-based, CellTiter-Glo luminescence, IC50, dose response (AID 1117332); format: functional; conditions: HCT-116
[9] = HCT116 cell viability decrease, GSK3B pretreatment – CellTiter-Glo, IC50, dose response (AID 1117339); format: functional; conditions: HCT-116
[10] = cytotoxicity toward Colo320 cells – cell-based, CellTiter-Glo luminescence, IC50, dose response (AID 1117334); format: functional; conditions: COLO 320
[11] = CellTiter-Glo luminescent dose response of DLD-1 viability loss (AID 1117352); format: functional
[12] = A549 cell cytotoxicity, dose response, cytotoxicity control, plate reader, cherry-pick, antagonist series (AID 743412); format: functional, cell-based
[13] = MC4R antagonists, dose response, counter-screen for LGR2 antagonist project, cell-based, plate reader, cherry pick (AID 743444); format: functional;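 also: transfected HEK 293 cells stimulated with alpha-MSH peptide; potency of inhibitors of the alpha-MSH evoked signal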
Estrogen receptor beta [14] = target: T1, Estrogen receptor beta (Homo sapiens, UniProt Q92731);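 also: recombinant ER-beta bound to coactivator SRC1 peptide in presence of estradiol agonist; inhibitors block coactivator peptide binding and lower the FRET signal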
Estrogen receptor beta [15] = target: T1, Estrogen receptor beta; experiment: ERβ–SRC-3 coactivator interaction inhibitors, confirmation, orthogonal assay, biochemical, ELISA, streptavidin-HRP readout (AID 1060)
[16] = target: T2, Histone-lysine N-methyltransferase NSD2 (Homo sapiens, UniProt O96028); format: biochemical
T2 sequence (O96028 whole entry): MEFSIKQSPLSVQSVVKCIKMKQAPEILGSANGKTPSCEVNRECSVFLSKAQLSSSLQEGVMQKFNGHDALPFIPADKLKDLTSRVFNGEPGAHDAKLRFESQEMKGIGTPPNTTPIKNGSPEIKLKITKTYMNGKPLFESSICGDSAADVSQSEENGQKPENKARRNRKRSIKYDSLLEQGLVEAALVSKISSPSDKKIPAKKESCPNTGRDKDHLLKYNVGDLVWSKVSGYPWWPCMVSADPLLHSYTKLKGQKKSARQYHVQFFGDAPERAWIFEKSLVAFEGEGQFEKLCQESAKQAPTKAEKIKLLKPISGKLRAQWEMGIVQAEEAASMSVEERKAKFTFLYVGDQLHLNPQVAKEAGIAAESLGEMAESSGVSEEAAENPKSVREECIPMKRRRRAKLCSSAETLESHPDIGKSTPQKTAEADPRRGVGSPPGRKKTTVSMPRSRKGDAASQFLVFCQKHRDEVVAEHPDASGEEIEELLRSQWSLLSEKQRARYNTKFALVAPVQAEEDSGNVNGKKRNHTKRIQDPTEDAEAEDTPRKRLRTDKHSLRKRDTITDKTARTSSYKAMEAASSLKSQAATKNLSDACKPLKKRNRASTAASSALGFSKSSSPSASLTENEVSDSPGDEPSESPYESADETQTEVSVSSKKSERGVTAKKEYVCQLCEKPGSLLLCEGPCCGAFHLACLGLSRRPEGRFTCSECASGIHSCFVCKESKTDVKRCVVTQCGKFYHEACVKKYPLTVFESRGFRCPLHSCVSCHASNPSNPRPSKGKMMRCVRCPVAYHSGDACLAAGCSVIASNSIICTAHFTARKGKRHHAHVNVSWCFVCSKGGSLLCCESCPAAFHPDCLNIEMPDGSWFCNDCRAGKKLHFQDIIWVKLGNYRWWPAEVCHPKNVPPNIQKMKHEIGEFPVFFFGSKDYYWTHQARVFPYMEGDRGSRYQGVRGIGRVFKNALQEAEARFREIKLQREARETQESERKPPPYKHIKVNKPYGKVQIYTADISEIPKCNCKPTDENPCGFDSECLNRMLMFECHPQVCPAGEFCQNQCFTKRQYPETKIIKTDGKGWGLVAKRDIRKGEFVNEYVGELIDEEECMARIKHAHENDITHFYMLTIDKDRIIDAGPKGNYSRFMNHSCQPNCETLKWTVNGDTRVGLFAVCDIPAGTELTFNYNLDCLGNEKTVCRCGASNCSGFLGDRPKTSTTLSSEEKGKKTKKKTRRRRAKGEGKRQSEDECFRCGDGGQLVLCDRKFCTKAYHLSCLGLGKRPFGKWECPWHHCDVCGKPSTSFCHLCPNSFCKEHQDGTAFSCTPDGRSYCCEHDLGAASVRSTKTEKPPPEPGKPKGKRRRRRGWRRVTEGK

[17] = target: T3, DNA repair protein RAD52 homolog (Homo sapiens, UniProt P43351); format: functional, biochemical
T3 sequence (P43351 whole entry): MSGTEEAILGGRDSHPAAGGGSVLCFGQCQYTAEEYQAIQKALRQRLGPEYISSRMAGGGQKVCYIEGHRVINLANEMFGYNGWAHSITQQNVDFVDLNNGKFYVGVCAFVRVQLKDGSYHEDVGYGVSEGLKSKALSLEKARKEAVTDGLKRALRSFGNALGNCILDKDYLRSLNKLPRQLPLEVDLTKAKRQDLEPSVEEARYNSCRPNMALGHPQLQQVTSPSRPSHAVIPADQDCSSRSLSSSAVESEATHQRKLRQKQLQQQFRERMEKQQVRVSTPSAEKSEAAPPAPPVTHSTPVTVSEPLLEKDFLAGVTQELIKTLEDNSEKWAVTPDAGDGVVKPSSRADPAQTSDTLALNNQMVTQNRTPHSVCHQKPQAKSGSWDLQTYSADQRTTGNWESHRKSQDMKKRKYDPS

[18] = target: T4, DNA repair and recombination protein RAD54-like (Homo sapiens, UniProt Q92698); experiment: inhibitors of human RAD54 branch migration, confirmation, biochemical, fluorescence, cherry-picked samples, dose series (AID 651657); format: functional
T4 sequence (Q92698 whole entry): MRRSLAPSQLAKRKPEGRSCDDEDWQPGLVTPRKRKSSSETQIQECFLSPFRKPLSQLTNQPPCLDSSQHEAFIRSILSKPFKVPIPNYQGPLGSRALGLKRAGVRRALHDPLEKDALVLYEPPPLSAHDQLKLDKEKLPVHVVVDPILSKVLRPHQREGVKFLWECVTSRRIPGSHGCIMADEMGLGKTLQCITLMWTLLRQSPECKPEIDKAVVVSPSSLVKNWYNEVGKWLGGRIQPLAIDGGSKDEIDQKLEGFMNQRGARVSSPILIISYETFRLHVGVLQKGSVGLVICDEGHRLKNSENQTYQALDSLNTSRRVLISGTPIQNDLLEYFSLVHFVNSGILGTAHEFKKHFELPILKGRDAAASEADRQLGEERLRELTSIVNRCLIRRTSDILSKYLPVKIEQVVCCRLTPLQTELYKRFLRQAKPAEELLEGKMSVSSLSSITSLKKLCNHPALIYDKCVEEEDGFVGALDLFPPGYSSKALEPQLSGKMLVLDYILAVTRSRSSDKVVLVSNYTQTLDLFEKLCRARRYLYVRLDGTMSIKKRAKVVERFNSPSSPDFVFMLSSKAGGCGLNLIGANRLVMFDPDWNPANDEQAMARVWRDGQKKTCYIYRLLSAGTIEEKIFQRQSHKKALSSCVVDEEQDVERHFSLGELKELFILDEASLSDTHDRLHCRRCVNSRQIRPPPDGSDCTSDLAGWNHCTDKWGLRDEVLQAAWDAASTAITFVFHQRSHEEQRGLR

[19] = microbe, parasite or virus in culture; format: functional; conditions: Mycobacterium tuberculosis
[20] = NIH-3T3 fibroblast cytotoxicity, dose response, cytotoxicity control, cell-based, fluorescence, Alamar Blue, secondary assay (AID 2327); format: functional;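 also: NIH-3T3 mouse fibroblasts cultured with fluconazole at 8 µg/mL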
[21] = C. albicans growth with fluconazole, confirmation, fluorescence, retest (AID 2467); format: functional, cell-based
Leucine aminopeptidase = target: T5, Leucine aminopeptidase (Plasmodium falciparum 3D7, UniProt Q8IL11); experiment: P. falciparum M17LAP inhibitors, primary screen, biochemical, fluorogenic H-Leu-NHMec substrate, 1536-well (AID 1619); format: functional
T5 sequence (Q8IL11 whole entry): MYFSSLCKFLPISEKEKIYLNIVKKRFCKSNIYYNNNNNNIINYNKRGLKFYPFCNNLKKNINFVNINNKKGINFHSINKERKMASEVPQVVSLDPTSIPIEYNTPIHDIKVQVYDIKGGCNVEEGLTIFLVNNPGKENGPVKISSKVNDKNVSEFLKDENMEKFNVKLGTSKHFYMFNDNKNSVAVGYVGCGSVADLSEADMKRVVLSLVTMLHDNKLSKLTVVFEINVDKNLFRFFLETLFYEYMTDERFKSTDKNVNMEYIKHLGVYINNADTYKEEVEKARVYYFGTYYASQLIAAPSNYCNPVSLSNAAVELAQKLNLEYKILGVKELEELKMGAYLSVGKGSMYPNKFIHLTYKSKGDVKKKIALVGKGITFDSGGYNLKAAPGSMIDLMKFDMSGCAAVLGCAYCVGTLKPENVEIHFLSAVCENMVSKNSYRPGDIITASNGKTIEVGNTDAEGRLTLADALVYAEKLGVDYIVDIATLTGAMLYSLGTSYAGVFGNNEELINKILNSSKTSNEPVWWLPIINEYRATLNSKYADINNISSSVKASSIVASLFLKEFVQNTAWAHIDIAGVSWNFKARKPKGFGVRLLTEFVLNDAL

Genome polyprotein = Genome polyprotein (dengue virus type 2, UniProt P29990); experiment: Dengue-2 NS5 methyltransferase inhibitors, primary screen, biochemical, confirmation dose response (AID 588689); format: functional
Sequence of Genome polyprotein (P29990 2492-3391 limits assumed): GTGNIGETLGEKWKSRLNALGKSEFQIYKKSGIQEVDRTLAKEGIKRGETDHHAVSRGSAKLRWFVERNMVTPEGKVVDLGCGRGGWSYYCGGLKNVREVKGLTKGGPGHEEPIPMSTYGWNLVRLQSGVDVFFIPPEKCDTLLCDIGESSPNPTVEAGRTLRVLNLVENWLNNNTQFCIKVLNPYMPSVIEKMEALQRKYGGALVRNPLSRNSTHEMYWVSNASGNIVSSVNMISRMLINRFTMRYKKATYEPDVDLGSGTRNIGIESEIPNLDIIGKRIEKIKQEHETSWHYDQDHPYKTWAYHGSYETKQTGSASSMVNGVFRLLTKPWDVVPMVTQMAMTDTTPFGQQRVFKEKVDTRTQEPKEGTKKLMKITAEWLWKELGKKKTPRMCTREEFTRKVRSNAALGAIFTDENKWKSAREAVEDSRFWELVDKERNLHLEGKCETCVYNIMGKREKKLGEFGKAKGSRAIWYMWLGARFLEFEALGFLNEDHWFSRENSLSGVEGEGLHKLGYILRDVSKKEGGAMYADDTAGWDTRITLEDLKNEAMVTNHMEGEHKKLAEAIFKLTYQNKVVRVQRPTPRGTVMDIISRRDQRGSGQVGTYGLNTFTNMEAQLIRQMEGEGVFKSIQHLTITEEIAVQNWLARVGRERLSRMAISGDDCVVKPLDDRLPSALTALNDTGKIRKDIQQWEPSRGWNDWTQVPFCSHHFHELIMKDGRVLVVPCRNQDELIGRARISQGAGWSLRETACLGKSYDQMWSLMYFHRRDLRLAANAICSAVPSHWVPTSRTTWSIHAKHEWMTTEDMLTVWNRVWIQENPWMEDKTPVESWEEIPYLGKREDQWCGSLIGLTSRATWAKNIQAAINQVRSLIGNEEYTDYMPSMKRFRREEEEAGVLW

T1 sequence (Q92731 whole entry): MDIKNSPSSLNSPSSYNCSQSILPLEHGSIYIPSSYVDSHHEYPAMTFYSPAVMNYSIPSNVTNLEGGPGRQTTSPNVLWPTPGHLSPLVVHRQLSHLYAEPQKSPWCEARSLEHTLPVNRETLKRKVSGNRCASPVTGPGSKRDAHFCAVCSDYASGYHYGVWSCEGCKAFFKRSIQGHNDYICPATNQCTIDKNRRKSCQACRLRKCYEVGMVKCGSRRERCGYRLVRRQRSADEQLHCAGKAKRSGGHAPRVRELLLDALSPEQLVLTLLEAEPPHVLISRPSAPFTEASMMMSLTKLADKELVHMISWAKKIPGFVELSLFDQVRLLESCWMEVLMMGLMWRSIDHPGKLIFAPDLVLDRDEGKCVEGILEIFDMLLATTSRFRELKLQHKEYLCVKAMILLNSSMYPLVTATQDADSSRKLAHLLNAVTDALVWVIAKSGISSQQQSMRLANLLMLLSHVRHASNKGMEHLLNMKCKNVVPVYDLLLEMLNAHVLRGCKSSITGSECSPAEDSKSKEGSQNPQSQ

Row | Compound | IC50 [4] | IC50 [5] | IC50 [6] | IC50 [7] | IC50 [8] | IC50 [9] | IC50 [10] | IC50 [11] | further results
1 | CCOC(=O)Cc1c(C)nc2c(-c3ccc(Cl)cc3)cnn2c1O | – | – | – | – | – | – | – | – | IC50 (cells): 6.28 µM (active); CC50 [1]: 29 µM (active); CC50 [2]: 17.5 µM (active); IC50 (H9c2): > 79 µM (inactive); CC50 [3]: > 20 µM (active)
2 | CCCCC[C@@H](O)CC[C@H]1[C@@H]2Cc3cccc(OCC(=O)O)c3C[C@@H]2C[C@@H]1O | > 20 µM (inactive) | > 20 µM (inactive) | > 20 µM (inactive) | > 20 µM (inactive) | > 20 µM (inactive) | > 20 µM (inactive) | > 20 µM (inactive) | > 20 µM (inactive) | –
3 | O=C(Cc1ccncc1)NCC[C@H]1CC[C@H](NC(=O)C2CCCC2)[C@H](CO)O1 | – | – | – | – | – | – | – | – | AC50 [12]: > 52 µM (inactive); AC50 [13]: 42.1 µM (active)
4 | CC1(C)[C@H](C=C(Cl)Cl)[C@@H]1C(=O)OCc1c(F)c(F)cc(F)c1F | > 20 µM (inactive) | > 20 µM (inactive) | > 20 µM (inactive) | > 20 µM (inactive) | > 20 µM (inactive) | > 20 µM (inactive) | > 20 µM (inactive) | > 20 µM (inactive) | –
5 | Cc1cc(C)c(C(=O)COc2cccnc2[N+](=O)[O-])cc1C | – | – | – | – | – | – | – | – | IC50 (Estrogen receptor beta [14]): 7.21 µM (active); IC50 (Estrogen receptor beta [15]): > 50 µM (not active)
6 | CCN(CC)CCNc1nc(SC)nc2sc3c(c12)CCN(C)C3 | – | – | – | – | – | – | – | – | AC50 [16]: > 20 µM (inactive); AC50 [17]: 5.18 µM (active); AC50 [18]: 95.3 µM (active)
7 | COC(=O)C1=C(C)NC(C)=C(C(=O)O[C@@H]2CCCN(Cc3ccccc3)C2)[C@@H]1c1cccc([N+](=O)[O-])c1 | > 20 µM (inactive) | 5.27 µM (inactive) | 5.76 µM (inactive) | 8.05 µM (inactive) | 4.28 µM (active) | 5.31 µM (inactive) | 19.5 µM (inactive) | 7.96 µM (inactive) | –
8 | CCCCN(C)S(=O)(=O)c1ccc(C(=O)Nc2nnc(-c3ccco3)o2)cc1 | – | – | – | – | – | – | – | – | CC50 [19]: 11.6 µM (active); IC50 (cells): 6.64 µM (active); CC50 [1]: 10.5 µM (active); CC50 [2]: 6.27 µM (active); EC50 [20]: > 160 µM (inconclusive); CC50 [3]: 12.5 µM (active); EC50 [21]: 2.63 µM (active)
9 | O=C(O)CCc1nnc(SCC(=O)Nc2ccc(Br)cc2)nc1O | – | – | – | – | – | – | – | – | IC50 (Leucine aminopeptidase): 2.45 µM (active)
10 | COCCOC(=O)c1c(C)oc2ccc(NS(=O)(=O)c3ccc(C(=O)O)cc3)cc12 | – | – | – | – | – | – | – | – | IC50 (Estrogen receptor beta [15]): 3.82 µM (not active)
11 | CCCCN1CCCC1C(=O)Nc1c(C)cc(C)cc1C (stereo unspecified) [BUMECAINE] | > 20 µM (inactive) | > 20 µM (inactive) | > 20 µM (inactive) | > 20 µM (inactive) | > 20 µM (inactive) | > 20 µM (inactive) | > 20 µM (inactive) | > 20 µM (inactive) | –
12 | CCCCCCSc1nc(O)c(C2OC(=O)c3c2ccc(OC)c3OC)c(=O)n1CC (stereo unspecified) | – | – | – | – | – | – | – | – | IC50 (Leucine aminopeptidase): 3 µM (active); IC50 (Genome polyprotein): 56.9 µM (active)
13 | O=C(O)COc1ccccc1/C=C1\SC(=O)N(Cc2ccc(F)cc2)C1=O | – | – | – | – | – | – | – | – | IC50 (Leucine aminopeptidase): 34.8 µM (active)

Reference: ChEMBL document CHEMBL1201862, “PubChem BioAssay data set” (2004)
